This passage reports mutagenic call results from PubChem BioAssay AID1259407 (Chemical Carcinogenesis Research Information System (CCRIS), 2018).

In this data set the test system is CCRIS mutagenicity, Ames/micronucleus/aberration tests. Put plainly: CCRIS mutagenicity studies.
[1] abbreviates: Test System: AMES SALMONELLA TYPHIMURIUM, Strain/Indicator: TA98, Metabolic Activation: NONE, Method: PREINCUBATION
[2] abbreviates: Test System: AMES SALMONELLA TYPHIMURIUM, Strain/Indicator: TA98, Metabolic Activation: NONE, Method: STANDARD PLATE.
[3] abbreviates: Test System: AMES SALMONELLA TYPHIMURIUM, Strain/Indicator: TA100, Metabolic Activation: NONE, Method: STANDARD PLATE.
Where [4] appears, read: Test System: AMES SALMONELLA TYPHIMURIUM, Strain/Indicator: TA1535, Metabolic Activation: NONE, Method: STANDARD PLATE.
Setting [5] is: Test System: AMES SALMONELLA TYPHIMURIUM, Strain/Indicator: TA1537, Metabolic Activation: NONE, Method: STANDARD PLATE.

Structures are written as SMILES. The source made the active and inactive calls. No rule for the calls is given here.

As for `c1ccc2c(c1)c1c(c3c4ccccc4c4ccccc4c23)O1`, the mutagenic call is, setting by setting: (Test System: AMES SALMONELLA TYPHIMURIUM, Strain/Indicator: TA98, Metabolic Activation: NONE, Method: PREINCUBATION (KCL-CONTAINING MEDIUM)) “active; positive”; (Test System: AMES SALMONELLA TYPHIMURIUM, Strain/Indicator: TA98, Metabolic Activation: NONE, Method: PREINCUBATION (KCL-FREE MEDIUM)) “active; positive”; (Test System: AMES SALMONELLA TYPHIMURIUM, Strain/Indicator: TA100, Metabolic Activation: NONE, Method: PREINCUBATION (KCL-FREE OR KCL-CONTAINING MEDIA)) “active; positive”.
`CCCCBr`: the mutagenic call by setting is: (End Point: In vitro micronucleus, Test System: Chinese Hamster Ovary (CHO-WBL) cells, Metabolic Activation: None) “inactive; negative”; (Test System: AMES SALMONELLA TYPHIMURIUM, Strain/Indicator: TA100, Metabolic Activation: NONE, Method: DESICCATOR) “active; positive”; (Test System: AMES SALMONELLA TYPHIMURIUM, Strain/Indicator: TA100, Metabolic Activation: RAT, LIVER, S-9, AROCLOR 1254, Method: DESICCATOR) “active; positive”; (Test System: AMES SALMONELLA TYPHIMURIUM, Strain/Indicator: TA1535, Metabolic Activation: NONE, Method: DESICCATOR) “active; positive”; (Test System: AMES SALMONELLA TYPHIMURIUM, Strain/Indicator: TA1535, Metabolic Activation: RAT, LIVER, S-9, AROCLOR 1254, Method: DESICCATOR) “active; positive”.
Turning to `S=P(N1CC1)(N1CC1)N1CC1`, the mutagenic call by setting is: (Test System: AMES SALMONELLA TYPHIMURIUM, Strain/Indicator: TA98, Metabolic Activation: HAMSTER, LIVER, S-9, AROCLOR 1254 (30%), Method: PREINCUBATION) “inactive; negative”; under setting [1], “inactive; negative”; under setting [2], “inactive; negative”; (Test System: AMES SALMONELLA TYPHIMURIUM, Strain/Indicator: TA98, Metabolic Activation: RAT, LIVER, S-9, AROCLOR 1254 (30%), Method: PREINCUBATION) “inactive; negative”; (Test System: AMES SALMONELLA TYPHIMURIUM, Strain/Indicator: TA100, Metabolic Activation: HAMSTER, LIVER, S-9, AROCLOR 1254 (30%), Method: PREINCUBATION) “active; positive”; (Test System: AMES SALMONELLA TYPHIMURIUM, Strain/Indicator: TA100, Metabolic Activation: NONE, Method: PREINCUBATION) “active; positive”. Further, the mutagenic call under setting [3] was “active; positive”; the mutagenic call (Test System: AMES SALMONELLA TYPHIMURIUM, Strain/Indicator: TA100, Metabolic Activation: RAT, LIVER, S-9, AROCLOR 1254 (30%), Method: PREINCUBATION) was “active; positive”; the mutagenic call under setting [4] is “active; positive”; the mutagenic call under setting [5] is “inactive; negative”; the mutagenic call (Test System: CHINESE HAMSTER V-79, Strain/Indicator: V-79/6-THIOGUANINE, Metabolic Activation: NONE, Method: FLASK ASSAY) is “inactive; negative”; the mutagenic call (Test System: E. COLI, Strain/Indicator: WP2 (HCR), Metabolic Activation: NONE, Method: STANDARD PLATE) was “active; positive”.
As to `O=C1c2ccccc2CCc2ccccc21`, the mutagenic call is, setting by setting: (Test System: AMES SALMONELLA TYPHIMURIUM, Strain/Indicator: TA98, Metabolic Activation: HAMSTER, LIVER, S-9, AROCLOR 1254, Method: STANDARD PLATE) “inactive; negative”; under setting [2], “inactive; negative”; (Test System: AMES SALMONELLA TYPHIMURIUM, Strain/Indicator: TA98, Metabolic Activation: RAT, LIVER, S-9, AROCLOR 1254, Method: STANDARD PLATE) “inactive; negative”; (Test System: AMES SALMONELLA TYPHIMURIUM, Strain/Indicator: TA100, Metabolic Activation: HAMSTER, LIVER, S-9, AROCLOR 1254, Method: STANDARD PLATE) “inactive; negative”; under setting [3], “inactive; negative”; (Test System: AMES SALMONELLA TYPHIMURIUM, Strain/Indicator: TA100, Metabolic Activation: RAT, LIVER, S-9, AROCLOR 1254, Method: STANDARD PLATE) “inactive; negative”. In addition, the mutagenic call is “inactive; negative” (Test System: AMES SALMONELLA TYPHIMURIUM, Strain/Indicator: TA1535, Metabolic Activation: HAMSTER, LIVER, S-9, AROCLOR 1254, Method: STANDARD PLATE); “inactive; negative” under setting [4]; “inactive; negative” (Test System: AMES SALMONELLA TYPHIMURIUM, Strain/Indicator: TA1535, Metabolic Activation: RAT, LIVER, S-9, AROCLOR 1254, Method: STANDARD PLATE); “inactive; negative” (Test System: AMES SALMONELLA TYPHIMURIUM, Strain/Indicator: TA1537, Metabolic Activation: HAMSTER, LIVER, S-9, AROCLOR 1254, Method: STANDARD PLATE); “inactive; negative” under setting [5]; “inactive; negative” (Test System: AMES SALMONELLA TYPHIMURIUM, Strain/Indicator: TA1537, Metabolic Activation: RAT, LIVER, S-9, AROCLOR 1254, Method: STANDARD PLATE). Moreover, the mutagenic call (Test System: AMES SALMONELLA TYPHIMURIUM, Strain/Indicator: TA1538, Metabolic Activation: HAMSTER, LIVER, S-9, AROCLOR 1254, Method: STANDARD PLATE) was “inactive; negative”; the mutagenic call (Test System: AMES SALMONELLA TYPHIMURIUM, Strain/Indicator: TA1538, Metabolic Activation: NONE, Method: STANDARD PLATE) is “inactive; negative”; the mutagenic call (Test System: AMES SALMONELLA TYPHIMURIUM, Strain/Indicator: TA1538, Metabolic Activation: RAT, LIVER, S-9, AROCLOR 1254, Method: STANDARD PLATE) was “inactive; negative”; the mutagenic call (Test System: MOUSE LYMPHOMA, Strain/Indicator: L5178Y (TK+/TK-), Metabolic Activation: NONE, Method: SUSPENSION/PLATE) was “inactive; negative. reevaluation of results: negative”; the mutagenic call (Test System: MOUSE LYMPHOMA, Strain/Indicator: L5178Y (TK+/TK-), Metabolic Activation: RAT, LIVER, S-9, AROCLOR 1254, Method: SUSPENSION/PLATE) was “inactive; negative. reevaluation of results: negative”.
Consider `Nc1ccc(-c2ccc(N)c(Br)c2)cc1Br`, for which the mutagenic call is “active; positive” (Test System: AMES SALMONELLA TYPHIMURIUM, Strain/Indicator: TA98(1,8-DNP6), Metabolic Activation: NONE, Method: STANDARD PLATE); “active; positive” (Test System: AMES SALMONELLA TYPHIMURIUM, Strain/Indicator: TA98(1,8-DNP6), Metabolic Activation: S-9, Method: STANDARD PLATE); “active; positive” (Test System: AMES SALMONELLA TYPHIMURIUM, Strain/Indicator: TA98/1,8-DNP6, Metabolic Activation: HAMSTER, LIVER, S-9, Method: PREINCUBATION); “active; positive” (Test System: AMES SALMONELLA TYPHIMURIUM, Strain/Indicator: TA98/1,8-DNP6, Metabolic Activation: NONE, Method: PREINCUBATION); “active; positive” (Test System: AMES SALMONELLA TYPHIMURIUM, Strain/Indicator: TA98, Metabolic Activation: HAMSTER, LIVER, S-9, Method: PREINCUBATION); “active; positive” under setting [1]. In addition, the mutagenic call is “active; positive” under setting [2]; “active; positive” (Test System: AMES SALMONELLA TYPHIMURIUM, Strain/Indicator: TA98, Metabolic Activation: S-9, Method: STANDARD PLATE); “inactive; negative” under setting [3]; “active; positive” (Test System: AMES SALMONELLA TYPHIMURIUM, Strain/Indicator: TA100, Metabolic Activation: S-9, Method: STANDARD PLATE).
